Laboratory results published in patent publication US9458104B2 (priority 2012, dated 2016).

Key:
[1] = molecular target: T1, RORγ (UniProt P51449); assay type: cell-based; conditions: 293T cells, 16 h; for pIC50 (FF): firefly (FF) luciferase; for pIC50 (REN): renilla normalised (RENnorm) luciferase
T1 construct: hRORg-LBD|aa259-518|NP_005051.2; hRORgt|aa1-497|NP_001001523 (RORg, t isoform, 497aa); mRORg-LBD|aa264-516|NP_035411
T1 sequence (P51449 1-518): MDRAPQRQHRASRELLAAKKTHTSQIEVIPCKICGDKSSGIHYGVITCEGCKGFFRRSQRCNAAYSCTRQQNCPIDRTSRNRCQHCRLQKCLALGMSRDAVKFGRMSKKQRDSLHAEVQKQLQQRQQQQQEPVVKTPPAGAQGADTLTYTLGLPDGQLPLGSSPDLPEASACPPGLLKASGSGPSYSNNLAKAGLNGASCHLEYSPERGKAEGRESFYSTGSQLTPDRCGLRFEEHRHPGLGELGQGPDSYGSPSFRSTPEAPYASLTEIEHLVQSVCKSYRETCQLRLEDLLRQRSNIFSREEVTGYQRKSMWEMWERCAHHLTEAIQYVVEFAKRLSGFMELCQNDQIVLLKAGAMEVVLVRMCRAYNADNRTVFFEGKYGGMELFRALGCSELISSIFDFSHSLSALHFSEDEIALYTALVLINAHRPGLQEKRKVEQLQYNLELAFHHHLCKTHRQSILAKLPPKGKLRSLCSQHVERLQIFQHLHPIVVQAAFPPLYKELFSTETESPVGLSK
Description: Determination of a ligand mediated Gal4 promoter driven transactivation to quantify ligand binding to RORγ was performed as follows: DNA encoding three different RORγ. protein fragments was cloned into vector pCMV-BD (Stratagene). Expression was under control of a CMV promoter and as fusion to the DNA-binding domain of the yeast protein GAL4. Other vectors used were pFR-Luc (Stratagene) as regulated reporter plasmid. pFR-Luc contains a synthetic promoter with five tandem repeats of the yeast GAL4 binding sites that control expression of the Photinus pyralis (American firefly) luciferase gene. In order to improve experimental accuracy the plasmid pRL-CMV was cotransfected. pRL-CMV contains the constitutive CMV promoter, controlling the expression of the Renilla reniformis luciferase.
All Gal4 reporter gene assays were done in 293T cells (DSMZ (German Collection of Microorganisms and Cell Cultures), Braunschweig, Germany, ACC635) grown in Minimum Essential Medium (MEM) with Phenol Red. The medium is supplemented with 10% fetal bovine serum, 0.1 mM nonessential amino acids, 1 mM sodium pyruvate, 1% Glutamax and 100 units Penicilin/[…] per mL at 37° C. in 5% CO2.
For the assay, […] were plated per well in 96 well plates in 100 μL per well, incubated over night at 37° C. in 5% CO2. The following day, medium was discarded and the cells were transiently transfected using 20 μL per well of a OptiMEM—PEI-based transfection-reagent (Sigma-Aldrich, 408727) including the three plasmids described above. About 4 h after addition of the transfection solution, fresh Minimal Essential Medium (MEM, same composition as used for plating cells, but without serum) was added. Then compound stocks, prediluted in MEM (same composition as used for plating cells) were added (final vehicle concentration not exceeding 0.1%).
All experiments were done at least in triplicates.
It is understood that the data illustrated below may have reasonable variation depending on the specific conditions and procedures used by the person conducting the test.

[2] = molecular target: T2, RORγ ligand binding domain (LBD) (Homo sapiens, UniProt P51449); test: TR-FRET Activity Assay (ligand sensing assay, RORγ-LBD / coactivator peptide interaction); assay type: biochemical
T2 construct: made in house; host or cells: E. coli BL-21 (BL3), vector pDEST15
T2 sequence (P51449 269-508 limits assumed): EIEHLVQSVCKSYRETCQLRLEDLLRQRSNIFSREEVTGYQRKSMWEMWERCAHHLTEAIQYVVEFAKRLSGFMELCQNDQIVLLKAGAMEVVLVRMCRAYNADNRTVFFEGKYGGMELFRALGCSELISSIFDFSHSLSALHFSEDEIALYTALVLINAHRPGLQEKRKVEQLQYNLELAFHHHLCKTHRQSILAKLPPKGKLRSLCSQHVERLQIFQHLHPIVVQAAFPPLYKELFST
Excerpt: This method measures the ability of putative ligands to modulate the interaction between the purified bacterial expressed RORγ ligand binding domain (LBD) and synthetic N-terminally biotinylated peptides which are derived from nuclear receptor coactivator proteins such as but not limited to SRC1 (NcoA1), SRC2 (NcoA2, TIF2), SRC3 (NcoA3), PGC1α, PGC1β, CBP, GRIP1, TRAP220, RIP140.
The ligand-binding domain (LBD) of RORγ was expressed as fusion protein with GST in […] cells using the vector pDEST15. Cells were lysed by lysozyme-treatment and sonication, and the fusion proteins purified over glutathione sepharose (Pharmacia) according to the manufacturers instructions. For screening of compounds for their influence on the RORγ-peptide interaction, the LANCE technology (Perkin Elmer) was applied. This method relies on the binding dependent energy transfer from a donor to an acceptor fluorophor attached to the binding partner of interest. For ease of handling and reduction of background from compound fluorescence LANCE technology makes use of generic fluorophore labels and time resolved detection assays were done in a final volume of 25 μL in a 384 well plate, in a Tris-based buffer system (20 mM Tris-HCl pH6.8; 60 mM KCl, 1 mM DTT; 5 mM MgCl2; 35 ng/μL BSA), containing 20-60 ng/well recombinantly expressed RORγ-LBD fused to GST, 200-600 nM N-terminally biotinylated peptide, 200 ng/well Streptavidin-xIAPC conjugate (Prozyme) and 6-10 ng/well Eu W1024-antiGST (Perkin Elmer). DMSO content of the samples was kept at 1%.
After generation of the Tris-based buffer system, the potentially RORγ modulating ligands were diluted. […] The LANCE signal was detected by a Perkin Elmer EnVision™ Multilabel Counter. The results were visualized by plotting the ratio between the emitted light at 665 nm and 615 nm. […] Ligands that promote the complex formation induce a concentration-dependent increase in time-resolved fluorescent signal.
To assess the antagonistic potential of the compounds, IC50 values were determined using a Ligand Sensing Assay based on Time-resolved Fluorescence Energy Transfer (TR-FRET) as described above. The normalised TR-FRET assay values, using the following equation: 1000*665 nm measurement value/615 nm measurement value, were transferred to the program GraphPad Prism to generate graphs and dose response curves using the following equation: […]
This is identical to the “four parameter logistic equation”. The IC50 values are calculated using this equation. […] Is is understood that the data illustrated below may have reasonable variation depending on the specific conditions and procedures used by the person conducting the test.

SMILES	pIC50 (FF) [1]	pIC50 (REN) [1]	IC50 [2] [nM]
Cc1c(C(=O)NCCC(C)(C)C(=O)O)cn(-c2cc(C(C)(C)C)cc(C3(C)CC3)c2)c1CC1CCCCC1 [1/4]	7.2	7.2	398
Cc1c(C(=O)N[C@H]2C[C@H](C(=O)O)C2)cn(-c2cc(C(C)(C)C)cc(C3(C)CC3)c2)c1CC1CCCCC1 [1/5]	7.6	8.0	1000
Cc1c(C(=O)NC2CCOCC2)cn(-c2ccc(S(=O)(=O)NC(C)(C)C)c(C(C)(C)C)c2)c1CC1CCCCC1 [4/2]	7.3	7.5	631
Cc1c(C(=O)NC2CCOCC2)cn(-c2ccc(S(=O)(=O)NC(C)(C)C)c(C(F)(F)F)c2)c1CC1CCCCC1 [4/3]	7.6	7.6	398
Cn1c(C(=O)NC2CCOCC2)cc(-c2ccc(S(=O)(=O)NC(C)(C)C)c(C(C)(C)C)c2)c1CC1CCCCC1 [8/2]	7.1	7.3	398
Cn1c(C(=O)NC2CCOCC2)cc(-c2cc(C(C)(C)C)cc(C3(C)CC3)c2)c1CC1CCCCC1 [8/3]	7.1	7.3	501
Cn1c(C(=O)N[C@H]2C[C@H](C(=O)O)C2)cc(-c2ccc(S(=O)(=O)NC(C)(C)C)c3ccccc23)c1CC1CCCCC1 [8/4]	7.7		1000
Cn1c(C(=O)NCC2(O)CCS(=O)(=O)CC2)cc(-c2ccc(S(=O)(=O)NC(C)(C)C)c3ccccc23)c1CC1CCCCC1 [8/5]	7.6	7.6	1000
Cn1c(C(=O)NC2CCS(=O)(=O)CC2)cc(-c2ccc(S(=O)(=O)NC(C)(C)C)c3ccccc23)c1CC1CCCCC1 [8/6]	7.8	7.9	501
Cn1c(C(=O)NCC(C)(C)O)cc(-c2ccc(S(=O)(=O)NC(C)(C)C)c3ccccc23)c1CC1CCCCC1 [8/7]	7.8	7.9	501
Cn1c(C(=O)NC23CCC(C(=O)O)(CC2)CC3)cc(-c2ccc(S(=O)(=O)NC(C)(C)C)c3ccccc23)c1CC1CCCCC1 [8/8]	8.4	8.4	2000
Cn1c(C(=O)NCCC(C)(C)C(=O)O)cc(-c2cc(C(C)(C)C)cc(C3(C)CC3)c2)c1CC1CCCCC1 [8/10]	7.4	7.5	794
Cn1c(C(=O)N[C@H]2CC[C@H](C(=O)O)CC2)cc(-c2cc(C(C)(C)C)cc(C3(C)CC3)c2)c1CC1CCCCC1 [8/11]	7.3	7.4	1260
Cn1c(C(=O)NC23CCC(C(=O)O)(CC2)C3)cc(-c2cc(C(C)(C)C)cc(C3(C)CC3)c2)c1CC1CCCCC1 [8/12]	7.7	7.8	1000
Cn1c(C(=O)NCC(C)(C)C(=O)O)cc(-c2cc(C(C)(C)C)cc(C3(C)CC3)c2)c1CC1CCCCC1 [8/13]	7.4	7.6	2510
Cn1c(C(=O)NC23CCC(C(=O)O)(CC2)CC3)cc(-c2cc(C(C)(C)C)cc(C3(C)CC3)c2)c1CC1CCCCC1 [8/14]	7.4	7.6	2000
Cn1c(C(=O)N2CC(C(C)(C)C(=O)O)C2)cc(-c2cc(C(C)(C)C)cc(C3(C)CC3)c2)c1CC1CCCCC1 [8/15]	7.2	7.4	2000
Cn1c(C(=O)N2CCC(C)(C(=O)O)CC2)cc(-c2cc(C(C)(C)C)cc(C3(C)CC3)c2)c1CC1CCCCC1 [8/16]	7.5	7.6	1580
C[C@H](NC(=O)c1cc(-c2cc(C(=O)N[C@H]3C[C@H](C(=O)O)C3)n(C)c2CC2CCCCC2)cc(C2(C)CC2)c1)C(F)(F)F [8/17]	7.7	7.9	1000
Cn1c(C(=O)N[C@H]2C[C@H](C(=O)O)C2)cc(-c2cc(C(C)(C)C)nc(C3(C)CC3)n2)c1CC1CCCCC1 [8/18]	6.7	6.7	794
Cn1c(C(=O)N[C@H]2C[C@H](C(=O)O)C2)cc(-c2cc(C(C)(C)C)nc(C(C)(C)C)n2)c1CC1CCCCC1 [8/19]	6.8	6.8	794
Cn1c(C(=O)NC2CCOCC2)cc(CC2CCCCC2)c1-c1cc(C(C)(C)C)cc(C2(C)CC2)c1 [19/2]	6.9	6.9	501
CC(C)(C)c1cc(-c2cc(C(=O)NC3CCOCC3)nn2CC2CCCCC2)cc(C2(C)CC2)c1 [100/1]	7.3	7.4	79.4
CC(C)(C)NS(=O)(=O)c1ccc(-c2cc(C(=O)NC3CCOCC3)nn2CC2CCCCC2)cc1C(C)(C)C [100/2]	7.3	7.4	794
CC(C)(C)NS(=O)(=O)c1ccc(-c2cc(C(=O)N[C@H]3C[C@H](C(=O)O)C3)nn2CC2CCCCC2)cc1C(C)(C)C [100/3]	7.0	7.1	794
CC(C)(C)NS(=O)(=O)c1ccc(-c2cc(C(=O)NCCC(C)(C)C(=O)O)nn2CC2CCCCC2)cc1C(C)(C)C [100/4]	6.6	6.7	2000
CC(C)(C)NS(=O)(=O)c1ccc(-c2cc(C(=O)NC3CCOCC3)nn2CC2CCCCC2)cc1C(F)(F)F [100/5]	7.1	7.2	501
